Results taken from patent US20050239872A1, “1,5-distributed pyrrolid-2-one derivatives for use as ep4 receptor agonists in the teatment of eye diseases such as glaucoma” (priority 2002, published 2005).

Assays:
[1] = system: more than 80 receptors and enzymes; assay: PanLab screening against more than 80 receptors and enzymes; conditions: concentrations greater than 10 μM
[2] = Oral pharmacokinetics in rats; assay type: in vivo

**Q.** With `O=C1CC[C@H](/C=C/C(O)C(F)(F)c2ccccc2)N1CCCCCCc1nnn[nH]1` (stereo partly drawn) [Compound 7, (5R)-5[(1E)-4,4-difluoro-3-hydroxy-4-phenylbut-1-enyl]-1-[6-(1H-tetraazol-5-yl)hexyl]pyrrolidin-2-one] as the compound, how does the “activity in PanLab screening” value [1] read?
**A.** The value was “no significant activities”.

**Q.** What about the “terminal elimination half life” value [2] of the same compound?
**A.** The value was “good”.

**Q.** And the oral bioavailability ([2]; oral)?
**A.** The oral bioavailability was “good”.
